Drawing on PubChem BioAssay (NCI), this text covers TGI for nine compounds.

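Grown in 96-well plates, cells were treated for 48 hours with each compound at five concentrations. Insufficient inhibition: endpoint recorded as highest concentration tested. TGI: total growth inhibition.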

Common to all, as to assay: NCI-60 cell line screen, 48 h
Assay [1] relates to MDA-MB-231 breast.
Assay [2] relates to RPMI-8226 leukemia.
The subject of assay [3] is NCI/ADR-RES ovarian.
Assay [4] deals with HCT-116 colon.
Assay [5] relates to UO-31 renal.
For assay [6], the system named is SK-MEL-5 melanoma.
In assay [7] the test system is OVCAR-4 ovarian.
Assay [8] relates to MDA-MB-435.
Assay [9] concerns PC-3 prostate.
The subject of assay [10] is RXF 393 renal.
In assay [11] the test system is IGROV1 ovarian.
Assay [12] has as its system A498 renal.
Assay [13] relates to ACHN renal.
The test system of assay [14] is SF-295 CNS.
Assay [15] concerns MDA-N.

Take `CC(=O)Nc1cc(Cl)cc(Cl)c1O`: the TGI in assay [1], in [2], in assay [3], in [4], in assay [5] and in assay [6] was above 100 µM throughout. Besides, the TGI in [7], in [8], in [9], in assay [10], in [11] and in [12] was above 100 µM each time. The TGI in [13], in assay [14] and in [15] was above 100 µM in each case.
Turning to `O=S1SC(=S)C2C=CC=NC21` (stereo not given), the TGI in assay [1] was 42.3 µM; in assay [2], above 100 µM; in [3], 67.5 µM; in assay [4], 26.6 µM; in assay [5], 28.4 µM; in assay [6], 53.2 µM. Besides, the TGI in assay [7] was above 100 µM; in assay [8], above 100 µM; in [9], 30.5 µM; in assay [10] it was 32.5 µM; in assay [11] it was 49.6 µM; in assay [12], 66.1 µM. The TGI in assay [13] amounted to 32.4 µM; in assay [14], 62.3 µM; in assay [15], 27.8 µM.
On to `O=C1CSC(c2ccccc2O)N1c1ccc2c(c1)Oc1c(Cl)c3c(c(Cl)c1=N2)Oc1cc(N2C(=O)CSC2c2ccccc2O)ccc1N=3` (stereo not given), for which the TGI in assay [1], in assay [2], in assay [3], in [4], in assay [5] and in assay [6] was above 100 µM throughout. Besides, the TGI in [7] is above 100 µM; in [8], above 100 µM; in assay [9] it was above 100 µM; in assay [10], 44.5 µM; in assay [11] it was above 100 µM; in [12], above 100 µM. Also, the TGI is 55.1 µM in assay [13], above 100 µM in assay [14] and above 100 µM in [15].
Turning to `c1ccc2sc(SSSc3nc4ccccc4s3)nc2c1`, the TGI in assay [1], in assay [2], in assay [3], in assay [4], in [5] and in assay [6] was above 100 µM in each case. In addition, the TGI in assay [7], in [8], in [9], in [10], in [11] and in assay [12] was above 100 µM each time. The TGI in [13], in assay [14] and in assay [15] was above 100 µM each time.
With `COc1ccc(N2C(=O)C(Cl)C2c2cc3cc(Br)ccc3nc2Cl)cc1` (stereo not given), the TGI in assay [1] is 9.1 µM; in [2], 21.6 µM; in assay [3] it was 14.1 µM; in [4], 9.51 µM; in [5], 2.43 µM; in assay [6], 8.63 µM. For the same compound, the TGI in assay [7] is 9.68 µM; in assay [8], 10.7 µM; in assay [9], 21 µM; in assay [10] it was 9.38 µM; in assay [11] it was 10.6 µM; in assay [12], above 25 µM. In addition, the TGI in [13] is 9.64 µM; in assay [14], above 25 µM; in [15] it was 15.7 µM.
As for `CC(C)(C)OC(=O)N(O)[C@@H]1CC[C@H](n2cnc3c(N)ncnc32)C1`, the TGI in assay [1], in assay [2], in assay [3], in assay [4], in assay [5] and in [6] was above 100 µM each time. Further, the TGI in [7], in assay [8], in assay [9], in [10], in [11] and in assay [12] was above 100 µM each time. Moreover, the TGI in assay [13], in assay [14] and in assay [15] was above 100 µM in each case.
As to `CC1=NN(c2ccc(S(=O)(=O)O)cc2)C2(C1)C(Cl)C(=O)N2c1nc2ccccc2s1` (stereo not given), the TGI in assay [1], in [2], in [3], in assay [4], in assay [5] and in assay [6] was above 100 µM throughout. For the same compound, the TGI in assay [7], in assay [8], in [9], in [10], in assay [11] and in assay [12] was above 100 µM each time. In addition, the TGI in assay [13], in assay [14] and in [15] was above 100 µM throughout.
Turning to `CCCC(=O)OCC1OC(n2cc(F)c(=O)[nH]c2=O)CC1O` (stereo not given), the TGI was above 10 µM in [1]; above 10 µM in [2]; above 10 µM in [3]; above 10 µM in assay [4]; above 10 µM in assay [5]; 1.35 µM in assay [6]. For the same compound, the TGI is above 10 µM in assay [7]; above 10 µM in assay [8]; above 10 µM in [9]; above 10 µM in [10]; above 10 µM in [11]; above 9.04 µM in assay [12]. Also, the TGI in assay [13] was above 10 µM; in assay [14], above 3.02 µM; in assay [15] it was above 10 µM.
Consider `COc1ccc(-c2sc(Br)c3c2C(=O)C2OC(=O)NC32)cc1OC` (stereo not given), for which the TGI in [1], in assay [2], in assay [3], in assay [4], in assay [5] and in [6] was above 100 µM each time. Moreover, the TGI in [7], in assay [8], in [9], in [10], in assay [11] and in assay [12] was above 100 µM each time. Further, the TGI in [13], in assay [14] and in assay [15] was above 100 µM in each case.
